The values below come from patent US20240148821A1, “PHARMACEUTICAL USE OF CYCLIC PEPTIDE COMPOUND” (CHUGAI SEIYAKU KABUSHIKI KAISHA, priority 2021, published 2024).

Numbered stars: 1 amine (or outer) side, 2 acyl side, 3 side chain; on linkers, the order of the positions; unused ones are H or OH. Bridge positions count the residues as written; N and C are the ends. Square brackets hold non-standard residues; d marks the D form. Peptide text beside a SMILES is read from it. * marks the point of attachment. hPhe(3,5-F2-4-CF3) = N[C@@H](CCc1cc(F)c(C(F)(F)F)c(F)c1)C(=O)O; hPhe(3-Cl-4-CF3) = N[C@@H](CCc1ccc(C(F)(F)F)c(Cl)c1)C(=O)O; hPhe(3-F,4-CF3) = N[C@@H](CCc1ccc(C(F)(F)F)c(F)c1)C(=O)O; Pro(cis-4-Ph) = O=C(O)[C@@H]1C[C@H](c2ccccc2)CN1; NEtPhe(4-Cl) = CCN[C@@H](Cc1ccc(Cl)cc1)C(=O)O; NMePhe(4-CN) = CN[C@@H](Cc1ccc(C#N)cc1)C(=O)O; NMePhe(4-Cl) = CN[C@@H](Cc1ccc(Cl)cc1)C(=O)O; NMeNle(6-CHF2) = CN[C@@H](CCCCC(F)F)C(=O)O; NMedβ3hAla = C[C@H](CC(=O)[*:2])N(C)[*:1]; NMeGly(cPent) = CN[C@H](C(=O)O)C1CCCC1; Phe(3-I) = N[C@@H](Cc1cccc(I)c1)C(=O)O; NMeCha = CN[C@@H](CC1CCCCC1)C(=O)O; NMeChg = CN[C@H](C(=O)O)C1CCCCC1; NMeD = CN[C@@H](CC(=O)O)C(=O)O; CH2CONHtBu = CC(C)(C)NC(=O)C*; NMeL = CN[C@@H](CC(C)C)C(=O)O; NMeV = CN[C@H](C(=O)O)C(C)C; NMeS = CN[C@@H](CO)C(=O)O; NMeA = CN[C@@H](C)C(=O)O; NMeAib = CNC(C)(C)C(=O)O; Nle = CCCC[C@H](N)C(=O)O; Piperidide = C1CCN(*)CC1; Pyrrolidide = C1CCN(*)C1; Ac5c = NC1(C(=O)O)CCCC1; Aze = O=C(O)[C@@H]1CCN1; Aib = CC(C)(N)C(=O)O; Isopentyl = CC(C)CC*; Sar = CNCC(=O)O

In the assay the test system is Human pancreatic cancer cell line AsPC-1 (G12D mutation Kras). The assay is described as follows: AsPC-1 cell growth inhibition (AsPC-1 CGI). It counts as cell-based. As to conditions: read-out: AsPC-1 cell growth inhibition, 50% growth inhibitory concentration (IC50 value); 96 hours, CellTiter-Glo, values classified in ranges.
Protocol: Test compounds were serially dilated with dimethyl sulfoxide, and 200 nL was then dispensed to a U-bottom 96-well plate using Labcyte Echo. […] The cell suspension was dispensed to a. plate containing a test compound at 100 μL per well and incubated at 37° C. in a 5% carbon dioxide gas incubator. 96 hours later, 80 μL of CellTiter-Glo (Promega) was added to each well and fluorescence was measured.
Regarding `CC[C@H](C)[C@@H]1NC(=O)[C@H](CC(C)C)N(C)C(=O)C[C@@H](C(=O)N2CCCCC2)N(C)C(=O)[C@H](C(C)C)N(C)C(=O)C2(CCCC2)NC(=O)[C@@H]2CCCN2C(=O)[C@H](CCc2ccc(C(F)(F)F)c(Cl)c2)NC(=O)CN(C)C(=O)[C@H](Cc2ccc(C#N)cc2)N(C)C(=O)CN(C)C(=O)CN(C)C1=O` [Compound 867] ([NMeL]I[Sar][Sar][NMePhe(4-CN)][Sar][hPhe(3-Cl-4-CF3)]P[Ac5c][NMeV][NMeD]-Piperidide; lactam N-11), the IC50 is > 500 nM.

Take `CC[C@H](C)[C@@H]1NC(=O)[C@H](C)N(C)C(=O)C[C@@H](C(=O)N2CCCCC2)N(C)C(=O)[C@H](C(C)C)N(C)C(=O)C(C)(C)N(C)C(=O)[C@@H]2CCCN2C(=O)[C@H](CCc2ccc(C(F)(F)F)c(Cl)c2)NC(=O)CN(C)C(=O)[C@H](CC2CCCCC2)N(C)C(=O)CN(C)C(=O)CN(C)C1=O` [Compound 507] ([NMeA]I[Sar][Sar][NMeCha][Sar][hPhe(3-Cl-4-CF3)]P[NMeAib][NMeV][NMeD]-Piperidide; lactam N-11): the IC50 was > 500 nM.

In the case of `CC[C@H](C)[C@@H]1NC(=O)[C@H](CC(C)C)N(C)C(=O)C[C@@H](C(=O)N2CCCCC2)N(C)C(=O)[C@H](CC(C)C)N(C)C(=O)C(C)(C)NC(=O)[C@H](COCC(=O)NC(C)(C)C)N(C)C(=O)[C@H](CCc2ccc(C(F)(F)F)c(Cl)c2)NC(=O)CN(C)C(=O)[C@H](COCCC(C)C)N(C)C(=O)CN(C)C(=O)CN(C)C1=O` [Compound 1480] ([NMeL]I[Sar][Sar][NMeS](Isopentyl)[Sar][hPhe(3-Cl-4-CF3)][NMeS](CH2CONHtBu)[Aib][NMeL][NMeD]-Piperidide; lactam N-11), the IC50 is > 500 nM.

Consider `CC[C@H](C)[C@@H]1NC(=O)[C@H](CC(C)C)N(C)C(=O)C[C@@H](C(=O)N2CCCCC2)N(C)C(=O)[C@H](CC(C)C)N(C)C(=O)C(C)(C)NC(=O)[C@H](CC(C)C)N(C)C(=O)[C@H](CCc2ccc(C(F)(F)F)c(F)c2)NC(=O)CN(C)C(=O)[C@H](CCCCC(F)F)N(C)C(=O)CN(C)C(=O)CN(C)C1=O` [Compound 1456] ([NMeL]I[Sar][Sar][NMeNle(6-CHF2)][Sar][hPhe(3-F,4-CF3)][NMeL][Aib][NMeL][NMeD]-Piperidide; lactam N-11), for which the IC50 is > 500 nM.

Take `CC[C@H](C)[C@@H]1NC(=O)[C@H](CC(C)C)N(C)C(=O)C[C@@H](C)N(C)C(=O)[C@H](CC(C)C)NC(=O)C(C)(C)N(C)C(=O)[C@H](CC(C)C)NC(=O)[C@H](CCc2ccc(C(F)(F)F)c(F)c2)NC(=O)CN(C)C(=O)[C@H](CC2CCCCC2)N(C)C(=O)[C@@H]2CCN2C(=O)CN(C)C1=O` [Compound 178] (cyclo([Aze][NMeCha][Sar][hPhe(3-F,4-CF3)]L[NMeAib]L[NMedβ3hAla][NMeL]I[Sar])): the IC50 was > 500 nM.

Take `CC[C@H](C)[C@@H]1NC(=O)[C@H](CC(C)C)N(C)C(=O)C[C@@H](C(=O)N2CCCCC2)N(C)C(=O)[C@H](C2CCCCC2)N(C)C(=O)C2(CCCC2)NC(=O)[C@@H]2C[C@H](c3ccccc3)CN2C(=O)[C@H](CCc2ccc(C(F)(F)F)c(Cl)c2)NC(=O)CN(C)C(=O)[C@H](CC2CCCCC2)N(C)C(=O)[C@@H]2CCCN2C(=O)CN(C)C1=O` [Compound 1096] ([NMeL]I[Sar]P[NMeCha][Sar][hPhe(3-Cl-4-CF3)][Pro(cis-4-Ph)][Ac5c][NMeChg][NMeD]-Piperidide; lactam N-11): the IC50 was > 500 nM.

In the case of `CCCC[C@@H]1NC(=O)[C@H](Cc2cccc(I)c2)NC(=O)CN(C)C(=O)[C@H](Cc2ccc(Cl)cc2)N(C)C(=O)CN(C)C(=O)CN(C)C(=O)[C@H]([C@@H](C)CC)NC(=O)[C@H](CC(C)C)N(C)C(=O)C[C@@H](C(=O)N2CCCCC2)N(C)C(=O)[C@H](CC(C)C)NC(=O)[C@H](Cc2ccc(Cl)cc2)N(C)C1=O` [Compound 934] ([NMeL]I[Sar][Sar][NMePhe(4-Cl)][Sar][Phe(3-I)][Nle][NMePhe(4-Cl)]L[NMeD]-Piperidide; lactam N-11), the IC50 was > 500 nM.

On to `CCCC[C@@H]1NC(=O)[C@H](Cc2cccc(I)c2)NC(=O)CN(C)C(=O)[C@H](Cc2ccc(Cl)cc2)N(CC)C(=O)CN(C)C(=O)CN(C)C(=O)[C@H]([C@@H](C)CC)NC(=O)[C@H](CC(C)C)N(C)C(=O)C[C@@H](C(=O)N2CCCCC2)N(C)C(=O)[C@H](CC(C)C)NC(=O)C(C)(C)N(C)C1=O` [Compound 423] ([NMeL]I[Sar][Sar][NEtPhe(4-Cl)][Sar][Phe(3-I)][Nle][NMeAib]L[NMeD]-Piperidide; lactam N-11), for which the IC50 is > 500 nM.

For `CC[C@H](C)[C@@H]1NC(=O)[C@H](CC(C)C)N(C)C(=O)C[C@@H](C(=O)N2CCCC2)N(C)C(=O)[C@H](C2CCCC2)N(C)C(=O)C2(CCCC2)NC(=O)[C@@H]2CCCN2C(=O)[C@H](CCc2cc(F)c(C(F)(F)F)c(F)c2)NC(=O)CN(C)C(=O)[C@H](CC2CCCCC2)N(C)C(=O)CN(C)C(=O)CN(C)C1=O` [Compound 1342] ([NMeL]I[Sar][Sar][NMeCha][Sar][hPhe(3,5-F2-4-CF3)]P[Ac5c][NMeGly(cPent)][NMeD]-Pyrrolidide; lactam N-11), the IC50 is ≤ 20 nM.
